Test results taken from patent US12390483B2, “Compounds and methods for treating neurological and cardiovascular conditions” (Astrocyte Pharmaceuticals, Inc., priority 2016, dated 2025).
Entries after “also recorded” stand apart in the source; their conditions may differ.

What was measured:
GFAP expression = experiment: Traumatic brain injury (TBI) in mice, Western blot analysis for GFAP; type: in vivo; conditions: for GFAP expression in brain (Western blot, GFAP/actin): 7 days post-injury, versus untreated TBI
Description: Animals and traumatic brain injury (TBI): TBI was performed with a controlled closed skull injury model as described in […] al. 2012 (J. Neurotrauma 30, 55-66). Following the method described therein, a pneumatic impact device was used to generate a moderate TBI leaving the skull and dura matter intact. To achieve this, C57BL/6 mice were anesthetized with isoflurane (3% induction, 1% maintenance) in 100% oxygen. A body temperature of 37° C. was maintained using a temperature-controlled heated surgical table. A small midline incision was made on the scalp using aseptic surgical techniques. A 5 mm stainless steel disc was positioned on the skull and fixed using superglue on the right parietal bone between bregma and lamda over the somatosensory cortex. The mouse was then positioned on a stage directly under the pneumatic impact tip. […] Scalp incisions were closed using 4-0 nylon braided suture and antibiotic ointment applied to the incision. Mice were placed in a Thermo-Intensive Care Unit (Braintree Scientific model FV-1; 37° C.; 27% 02) and monitored until fully awake and moving freely. […] Western Blot Analysis for GFAP: At selected survival times, mice were anesthetized under isoflurane and sacrificed. The brain was removed and placed on ice for dissection into impacted and non-impacted brain hemispheres. […] The homogenate was transferred to a 2 mL tube and centrifuged at 1000 g for 10 minutes at 4° C. and the supernatant was collected and analyzed. Protein concentration was determined by the BCA assay using a 1:50 dilution. 100 μg of protein was removed as an aliquot for each sample and Laemmli buffer containing β-mercaptoethanol added and the sample placed in a heat block for 3 minutes at 95° C. Samples were loaded on a 12% gel and ran at 80 V for 20 minutes followed by 40 minutes at 130 V. Samples were transferred to nitrocellulose membrane at 100 V for 1 hour. The membrane was blocked with 5% milk in TBS-T for 30 minutes. GFAP (1:1000-Imgenex IMG-5083-A) was added and placed at 4° C. overnight. The membrane was washed with TBS-T three times for 10 minutes. Secondary antibody for GFAP (Donkey anti-rabbit HRP conjugated (ImmunoJackson Laboratories; 711-035-152; 1:20000) was applied at room temperature for 1 hour. The membranes were washed with TBS-T for 15 minutes (3 times) and developed using the Western Lightning Plus-ECL kit (PerkinElmer, Inc.) following manufacturer's directions.

[1] = tested on: photothrombosis-induced stroke infarctions; experiment: Photothrombosis-induced stroke in mice, TTC-stained brain infarction size; type: in vivo; conditions: for size of the brain infarction (TTC staining): 24 hours after stroke, versus vehicle; for size of brain infarctions in mice pretreated with the A3 receptor antagonist MRS1523: MRS1523 2 mg/kg i.p. at 0 and 2 hours, treatment within 30 minutes of clot formation, 24 hours
Description: Photothrombosis-induced Stroke: Photothrombosis was performed as described in Zheng et al 2010 (PloS One 5 (12): e14401). In brief, Rose Bengal is a fluorescent dye that when injected into the vasculature and excited, generates singlet oxygen that damages the endothelial wall and induces a local thrombosis (clot). Using this technique, mice were given a 0.1 mL tail-vein injection of sterilized Rose Bengal (RB, Sigma, U.S.A.) in artificial cerebral spinal fluid (aCSF). The RB concentration was 20 mg/mL. A cortical region was centered in the imaging field and illuminated with a green laser (543 nm, 5 mW) using a 0.8-NA 40× water-immersion objective (Nikon, Tokyo). The clot formation was monitored in real time until the targeted vessel or downstream capillaries were firmly occluded. Stable clots were subsequently identified by a non-fluorescent vessel segmentation ending with highly fluorescent regions. […] Treatments, MRS4322 (0.16 mg/kg; 0.5 μmol/kg) or MRS2365 (0.24 mg/kg; 0.5 μmol/kg) were introduced via intraperitoneal injections (i.p.). […] Animals and Photothrombosis-induced Stroke: Stroke was performed as described in Zheng et al 2010 (PloS One 5 (12): e14401). Female C57Bl/6 mice (4-6 months) were used in this study. From the methods of this manuscript: Mice were anesthetized at 3% isoflurane with 100% oxygen and subsequently maintained at 1% isoflurane through a nosecone. Depth of anesthesia was monitored and regulated according to vital signs, pinch withdrawal and eye blinks. Body temperature was maintained at 37° C. by a feedback-controlled heating pad (Gaymar T/Pump). Vital signs including oxygen saturation, respiratory rate, and heart rate were continuously monitored by using the MouseOx system (STARR Life Sciences). The hair on each mouse's head was trimmed and a small incision was made in the scalp to expose the skull. A custom-made stainless steel plate was glued to the skull with VetBond Tissue Adhesive (3M, St Paul, MN). A cranial thinned-skull imaging window was created over the right primary somatosensory cortex (˜1.5 mm posterior to Bregma and 2 mm lateral from midline) depending on the experiment. In brief, a large region of the skull was first thinned with the electric drill and then further thinned with a surgical blade. The final thickness of the thinned skull was approximately 50 μm. After the cranial imaging window was created, mice were transferred to microscope stage and used for photothrombosis or imaging experiments. For the repeat imaging experiments, the plate was carefully detached from the skull and the scalp was sutured (Ethicon 6-0 sild suture). After each experiment, the mice were either returned to cages until the next timepoint or sacrificed. All procedures were approved by the Institutional Animal Care and Use Committee (IACUC) at University of Texas Health Science Center at San Antonio. Thirty minutes following stroke or sham (uninjured), mice were treated with either vehicle (saline) or drugs (MRS4322, MRS2365, MRS5698 or Cl-IBMECA). Post photothrombotic infarction evaluation. The size of cerebral infarcts was evaluated using 2,3,5-Triphenyltetrazolium chloride (TTC) staining as described in Zheng et al 2010 (PloS One 5 (12): e14401). In brief, RB-induced lesions in brain slices were stained with TTC. TTC is a colorless dye that stains healthy brain tissue red when reduced by the mitochondrial enzyme succinyl dehydrogenase (Bederson J B et al., 1986). The absence of staining in necrotic tissue is then used to define the area of a brain infarction. Mice were sacrificed by cervical dislocation, their brains removed and then placed in ice cold HBSS for 3 minutes. […] The sections were fixed in 10% buffered formaldehyde solution overnight at 4° C. Slices were imaged on a flatbed scanner (HP scanjet 8300) for analysis of the lesion size at 1200 dpi. Photothrombosis-induced Stroke: Photothrombosis was performed as described in Zheng et al. 2010 (PloS One 5 (12): e14401). […]

[2] = TBI mice, approx. 0.5 μmol/kg 30 min post-TBI
[3] = Example 6: mice, 0.5 μmol/kg i.p. within 30 minutes of clot formation

Row | Compound | GFAP expression in brain (Western blot, GFAP/actin) (GFAP expression; [2]) | GFAP levels in plasma (Western blot, relative to actin) (GFAP expression; TBI mice, approx. 0.5 μmol/kg 30 min post-TBI, day 7, versus untreated TBI) | efficacy in the mouse TBI model (GFAP expression; summary statement) | size of the brain infarction (TTC staining) [1, 3] | size of the brain infarction (TTC staining) ([1]; Example 7: mice, 100 ul of 100 uM i.p. within 30 minutes of clot formation) | size of brain infarctions in mice pretreated with the A3 receptor antagonist MRS1523 [1] | efficacy in the mouse photothrombotic stroke model ([1]; summary statement)
1 | CSc1nc(N)c2ncn([C@H]3[C@H](O)[C@H](O)[C@]4(CO)C[C@H]34)c2n1 [MRS4322] | significantly lower; also recorded: decreased | significantly reduced | significant efficacy | significantly reduced | significantly reduced | reversed by MRS1523; also recorded: not reduced | significant efficacy
2 | CSc1nc(N)c2ncn([C@H]3[C@H](O)[C@H](O)[C@]4(COP(=O)(O)OP(=O)(O)O)C[C@H]34)c2n1 [MRS2365] | significantly lower; also recorded: decreased |  |  | significantly reduced |  | not reduced | 
